Measurements: ChEMBL document CHEMBL3885861, “Open TG-GATES”

Organism: Rattus norvegicus
Assay: Open TG-GATES - Regimen: Single
Type: toxicity, organism-based, Sprague-Dawley
Parameters: regimen Single, gender Male, age 6 weeks
Conditions: in vivo, po, route gavage; for Hb / Ht / Lym / MCH / MCHC / MCV / Mono / Neu / PT / Plat / RBC / Ret / WBC / APTT / Bas / Eos / Fbg: tissue Blood; for KIDNEY_L / KIDNEY_R / KIDNEY_TOTAL: tissue Kidney; for LIVER: tissue Liver; for A/G / ALP / ALT / AST / BUN / CRE / Ca / Cl / DBIL / GLC / IP / K / LDH / Na / PL / RALB / TBIL / TC / TG / TP / gamma-GTP: tissue Plasma
[1] = 15 mg/kg, 6 h, dose level Middle
[2] = 15 mg/kg, 9 h, dose level Middle
[3] = 15 mg/kg, 24 h, dose level Middle

Q: How did the Hb [1] turn out when `COc1ccc2c(c1)c(CC(=O)O)c(C)n2C(=O)c1ccc(Cl)cc1` [INDOMETHACIN] was run?
A: 14 g/dL

Q: What about the Ht [1] of the same compound?
A: 38.4%

Q: What about the Lym [1] of the same compound?
A: 71.4%

Q: And the MCH [1]?
A: 22.9 pg

Q: And the MCHC [1]?
A: 36.6%

Q: What about the MCV [1] of the same compound?
A: 62.7 fL

Q: And the Mono [1]?
A: 3.4%

Q: And the Neu [1]?
A: 22.8%

Q: What about the PT [1] of the same compound?
A: 12.2 s

Q: What about the Plat [1] of the same compound?
A: 116.9 x10_4/uL

Q: What about the RBC [1] of the same compound?
A: 613.2 x10_4/ul

Q: What about the Ret [1] of the same compound?
A: 7.8%

Q: What about the WBC [1] of the same compound?
A: 112.3 x10_2/uL

Q: What about the KIDNEY_L [1] of the same compound?
A: 1 g

Q: What about the KIDNEY_R [1] of the same compound?
A: 1 g

Q: What about the KIDNEY_TOTAL [1] of the same compound?
A: 2 g

Q: And the LIVER [1]?
A: 9.3 g

Q: What about the A/G [1] of the same compound?
A: 1.6

Q: What about the ALP [1] of the same compound?
A: 853.6 IU/L

Q: What about the ALT [1] of the same compound?
A: 39.6 IU/L

Q: And the AST [1]?
A: 70 IU/L

Q: What about the BUN [1] of the same compound?
A: 12.8 mg/dL

Q: What about the CRE [1] of the same compound?
A: 0.4 mg/dL

Q: And the Ca [1]?
A: 10.5 mg/dL

Q: And the Cl [1]?
A: 103.4 meq/L

Q: What about the DBIL [1] of the same compound?
A: 0.074 mg/dL

Q: And the GLC [1]?
A: 200.2 mg/dL

Q: What about the IP [1] of the same compound?
A: 9.5 mg/dL

Q: What about the K [1] of the same compound?
A: 4.1 meq/L

Q: What about the LDH [1] of the same compound?
A: 204.8 IU/L

Q: And the Na [1]?
A: 140.8 meq/L

Q: And the PL [1]?
A: 135.6 mg/dL

Q: What about the RALB [1] of the same compound?
A: 3.2 g/dL

Q: And the TBIL [1]?
A: 0.1 mg/dL

Q: What about the TC [1] of the same compound?
A: 74.4 mg/dL

Q: And the TG [1]?
A: 66.6 mg/dL

Q: And the TP [1]?
A: 5.3 g/dL

Q: What about the gamma-GTP [1] of the same compound?
A: 1.2 IU/L

Q: And the TERMINAL_BW [2]?
A: 220.7 g

Q: And the APTT [2]?
A: 18 s

Q: And the Bas [2]?
A: 0%

Q: And the Eos [2]?
A: 0.4%

Q: What about the Fbg [2] of the same compound?
A: 217.2 mg/dL

Q: And the Hb [2]?
A: 13.6 g/dL

Q: And the Ht [2]?
A: 37.1%

Q: And the Lym [2]?
A: 69.4%

Q: And the MCH [2]?
A: 22.4 pg

Q: And the MCHC [2]?
A: 36.6%

Q: And the MCV [2]?
A: 61.1 fL

Q: And the Mono [2]?
A: 3.4%

Q: And the Neu [2]?
A: 24.8%

Q: What about the PT [2] of the same compound?
A: 12.5 s

Q: And the Plat [2]?
A: 119.6 x10_4/uL

Q: And the RBC [2]?
A: 607 x10_4/ul

Q: What about the Ret [2] of the same compound?
A: 7.9%

Q: What about the WBC [2] of the same compound?
A: 101.8 x10_2/uL

Q: What about the KIDNEY_L [2] of the same compound?
A: 0.9 g

Q: And the KIDNEY_R [2]?
A: 0.9 g

Q: And the KIDNEY_TOTAL [2]?
A: 1.9 g

Q: What about the LIVER [2] of the same compound?
A: 8.7 g

Q: What about the A/G [2] of the same compound?
A: 1.6

Q: And the ALP [2]?
A: 719.4 IU/L

Q: What about the ALT [2] of the same compound?
A: 29.2 IU/L

Q: And the AST [2]?
A: 63.8 IU/L

Q: What about the BUN [2] of the same compound?
A: 13 mg/dL

Q: And the CRE [2]?
A: 0.3 mg/dL

Q: What about the Ca [2] of the same compound?
A: 10.4 mg/dL

Q: And the Cl [2]?
A: 104.2 meq/L

Q: What about the DBIL [2] of the same compound?
A: 0.07 mg/dL

Q: And the GLC [2]?
A: 186.8 mg/dL

Q: And the IP [2]?
A: 10 mg/dL

Q: What about the K [2] of the same compound?
A: 4 meq/L

Q: What about the LDH [2] of the same compound?
A: 202.2 IU/L

Q: What about the Na [2] of the same compound?
A: 141.4 meq/L

Q: What about the PL [2] of the same compound?
A: 125.4 mg/dL

Q: What about the RALB [2] of the same compound?
A: 3.2 g/dL

Q: And the TBIL [2]?
A: 0.1 mg/dL

Q: And the TC [2]?
A: 69.6 mg/dL

Q: And the TG [2]?
A: 36.8 mg/dL

Q: What about the TP [2] of the same compound?
A: 5.2 g/dL

Q: And the gamma-GTP [2]?
A: 1 IU/L

Q: And the TERMINAL_BW [3]?
A: 227.1 g

Q: And the APTT [3]?
A: 19.7 s

Q: And the Bas [3]?
A: 0.2%

Q: And the Eos [3]?
A: 0.8%

Q: And the Fbg [3]?
A: 294.2 mg/dL

Q: What about the Hb [3] of the same compound?
A: 10.8 g/dL

Q: What about the Ht [3] of the same compound?
A: 31%

Q: What about the Lym [3] of the same compound?
A: 57.8%

Q: What about the MCH [3] of the same compound?
A: 21.3 pg

Q: What about the MCHC [3] of the same compound?
A: 34.9%

Q: And the MCV [3]?
A: 61.2 fL

Q: What about the Mono [3] of the same compound?
A: 2.4%

Q: And the Neu [3]?
A: 37.8%

Q: What about the PT [3] of the same compound?
A: 12.2 s

Q: What about the Plat [3] of the same compound?
A: 94.5 x10_4/uL

Q: What about the RBC [3] of the same compound?
A: 509.2 x10_4/ul

Q: What about the Ret [3] of the same compound?
A: 7.9%

Q: What about the WBC [3] of the same compound?
A: 93.5 x10_2/uL

Q: And the KIDNEY_L [3]?
A: 1 g

Q: And the KIDNEY_R [3]?
A: 1 g

Q: And the KIDNEY_TOTAL [3]?
A: 2.1 g

Q: What about the LIVER [3] of the same compound?
A: 9.5 g

Q: And the A/G [3]?
A: 1.3

Q: What about the ALP [3] of the same compound?
A: 547.6 IU/L

Q: And the ALT [3]?
A: 28 IU/L

Q: What about the AST [3] of the same compound?
A: 57 IU/L

Q: And the BUN [3]?
A: 14.4 mg/dL

Q: And the CRE [3]?
A: 0.4 mg/dL

Q: And the Ca [3]?
A: 9.8 mg/dL

Q: And the Cl [3]?
A: 105.4 meq/L

Q: And the DBIL [3]?
A: 0.06 mg/dL

Q: What about the GLC [3] of the same compound?
A: 173.2 mg/dL

Q: What about the IP [3] of the same compound?
A: 9.6 mg/dL

Q: What about the K [3] of the same compound?
A: 4.2 meq/L

Q: What about the LDH [3] of the same compound?
A: 180.2 IU/L

Q: What about the Na [3] of the same compound?
A: 141.2 meq/L

Q: And the PL [3]?
A: 127 mg/dL

Q: What about the RALB [3] of the same compound?
A: 2.5 g/dL

Q: And the TBIL [3]?
A: 0.1 mg/dL

Q: What about the TC [3] of the same compound?
A: 72.8 mg/dL

Q: And the TG [3]?
A: 80.8 mg/dL

Q: What about the TP [3] of the same compound?
A: 4.3 g/dL

Q: And the gamma-GTP [3]?
A: 1.4 IU/L

Q: And the TERMINAL_BW (50 mg/kg, 3 h, dose level High)?
A: 226 g

Q: And the APTT (50 mg/kg, 3 h, dose level High)?
A: 21.4 s

Q: What about the Bas (50 mg/kg, 3 h, dose level High) of the same compound?
A: 0.2%

Q: And the Eos (50 mg/kg, 3 h, dose level High)?
A: 1%

Q: What about the Fbg (50 mg/kg, 3 h, dose level High) of the same compound?
A: 216.6 mg/dL

Q: What about the Hb (50 mg/kg, 3 h, dose level High) of the same compound?
A: 13.8 g/dL

Q: And the Ht (50 mg/kg, 3 h, dose level High)?
A: 37.8%

Q: What about the Lym (50 mg/kg, 3 h, dose level High) of the same compound?
A: 73.6%

Q: And the MCH (50 mg/kg, 3 h, dose level High)?
A: 22.2 pg

Q: What about the MCHC (50 mg/kg, 3 h, dose level High) of the same compound?
A: 36.4%

Q: What about the MCV (50 mg/kg, 3 h, dose level High) of the same compound?
A: 60.9 fL

Q: What about the Mono (50 mg/kg, 3 h, dose level High) of the same compound?
A: 2.4%

Q: And the Neu (50 mg/kg, 3 h, dose level High)?
A: 22%

Q: What about the PT (50 mg/kg, 3 h, dose level High) of the same compound?
A: 12 s

Q: And the Plat (50 mg/kg, 3 h, dose level High)?
A: 119.2 x10_4/uL

Q: And the RBC (50 mg/kg, 3 h, dose level High)?
A: 621.6 x10_4/ul

Q: What about the Ret (50 mg/kg, 3 h, dose level High) of the same compound?
A: 8.1%

Q: And the WBC (50 mg/kg, 3 h, dose level High)?
A: 114.1 x10_2/uL

Q: What about the KIDNEY_L (50 mg/kg, 3 h, dose level High) of the same compound?
A: 0.9 g

Q: What about the KIDNEY_R (50 mg/kg, 3 h, dose level High) of the same compound?
A: 0.9 g

Q: And the KIDNEY_TOTAL (50 mg/kg, 3 h, dose level High)?
A: 1.9 g

Q: And the LIVER (50 mg/kg, 3 h, dose level High)?
A: 9.8 g

Q: And the A/G (50 mg/kg, 3 h, dose level High)?
A: 1.6

Q: And the ALP (50 mg/kg, 3 h, dose level High)?
A: 971 IU/L
